Reference: patent US9981969B2, “Imidazole derivatives and methods of use thereof for improving the pharmacokinetics of a drug” (MERCK SHARP & DOHME CORP., priority 2013, dated 2018)

What was measured:
CYP2C19 = target: T1, CYP2C19 (Homo sapiens, UniProt P33261); test: Cocktail assay for CYPs in human liver microsomes, mephenytoin 4′-hydroxylation (2C19); type: biochemical; conditions: 30 μM mephenytoin, 10 min at 37° C.
T1 construct: 0.1 mg/mL protein human liver microsomes (BD Gentest); tissue BD Gentest; host or cells: human liver microsomes
T1 sequence (P33261 whole entry): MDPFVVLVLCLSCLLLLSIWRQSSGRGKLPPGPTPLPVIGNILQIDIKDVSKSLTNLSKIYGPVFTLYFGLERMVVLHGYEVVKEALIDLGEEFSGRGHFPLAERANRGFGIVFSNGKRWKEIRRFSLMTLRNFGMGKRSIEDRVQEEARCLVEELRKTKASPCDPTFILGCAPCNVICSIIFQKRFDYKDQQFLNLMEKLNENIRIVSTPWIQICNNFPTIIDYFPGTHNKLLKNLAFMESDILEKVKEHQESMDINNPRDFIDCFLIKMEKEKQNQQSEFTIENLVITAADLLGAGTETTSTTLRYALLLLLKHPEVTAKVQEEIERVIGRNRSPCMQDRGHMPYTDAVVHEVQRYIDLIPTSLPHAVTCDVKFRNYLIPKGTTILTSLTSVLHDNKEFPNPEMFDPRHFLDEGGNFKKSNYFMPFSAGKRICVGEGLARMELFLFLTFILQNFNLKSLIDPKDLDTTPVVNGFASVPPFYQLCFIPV
Protocol: (§1) This assay was performed in a standard 96-well plate design. IC50 values were calculated from the percent inhibition observed for each test compound at 6 concentrations (for example, 0.0032, 0.016, 0.08, 0.4, 2 and 10 μM). The incubation substrate mix contains 10 μM phenacetin (1A2), 5 μM diclofenac (2C9), 30 μM mephenytoin (2C19), 5 μM dextromethorphan (2D6) and 2 μM midazolam (3A4), 0.1 mg/mL protein human liver microsomes (BD Gentest), 1 mM NAPDH, 3.3 mM MgCl2 and 100 mM potassium phosphate buffer (pH 7.4). The production of the metabolite of each probe substrate was determined after incubation for 10 min at 37° C. Quantitation of the metabolite peak area ratio against an internal standard (tolbutamide) was determined by LC/MS/MS analysis following acetonitrile treatment of the incubations.
(§2) Samples were analyzed in the MRM mode with a SCIEX API-4000 mass spectrometer (Applied Biosystems, Foster City, Calif.), with a Shimadzu LC-20 AD pump (Shimadzu corporation, Kyoto, JP) and a CTC PAL autosampler (Agilent Technologies, Switzerland). A Phenomenex, Luna, 5 μm, 100A, 2.00×30 mm HPLC column was used for the separation. The mobile phases were: (A) 0.1% formic acid in water and (B) 0.1% formic acid in acetonitrile. The binary gradient was as follows. AutoSampler: CTC PAL
(§3) The peak area ratio of the analyte to the internal standard was used to quantify the metabolite. The values of peak area ratios in the presence of test compound were compared to those of maximum or minimum controls and were expressed as % inhibition by interpolating between the maximum and minimum peak area ratios. Incubations with no inhibitor were defined as the maxima. The following equation was used to calculate the % inhibition: [1−[(X−Low control)/(High control−Low control)]]*100 For the IC50 calculation, SigmaPlot was used to plot the mean % inhibition versus the test compound concentrations and for non-linear regression analysis of the data. Depending on the range of data points defining the inhibition curve, the data may have been fit to the 4-parameter logistic equation.

CYP1A2 = target: T2, CYP1A2 (Homo sapiens, UniProt P05177); test: Cocktail assay for CYPs in human liver microsomes, phenacetin O-deethylation (1A2); type: biochemical; conditions: 10 μM phenacetin, 10 min at 37° C.
T2 construct: 0.1 mg/mL protein human liver microsomes (BD Gentest); tissue BD Gentest; host or cells: human liver microsomes
T2 sequence (P05177 1-516): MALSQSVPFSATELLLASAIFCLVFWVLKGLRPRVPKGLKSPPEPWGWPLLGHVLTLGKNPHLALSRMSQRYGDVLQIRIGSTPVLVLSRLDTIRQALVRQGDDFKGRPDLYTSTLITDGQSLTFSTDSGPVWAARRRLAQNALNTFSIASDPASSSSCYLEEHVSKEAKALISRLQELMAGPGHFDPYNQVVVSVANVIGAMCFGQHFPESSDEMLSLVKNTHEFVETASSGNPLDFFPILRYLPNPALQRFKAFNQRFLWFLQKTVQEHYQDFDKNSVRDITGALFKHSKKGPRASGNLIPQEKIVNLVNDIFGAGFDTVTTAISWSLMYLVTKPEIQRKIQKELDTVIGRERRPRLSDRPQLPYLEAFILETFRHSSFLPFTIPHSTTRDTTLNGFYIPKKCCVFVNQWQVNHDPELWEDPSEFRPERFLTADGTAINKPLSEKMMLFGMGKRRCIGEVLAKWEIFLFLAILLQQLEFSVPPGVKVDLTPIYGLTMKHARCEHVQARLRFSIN
Protocol: as §1, §2, §3

CYP2C9 = target: T3, CYP2C9 (Homo sapiens, UniProt P11712); test: Cocktail assay for CYPs in human liver microsomes, diclofenac 4′-hydroxylation (2C9); type: biochemical; conditions: 5 μM diclofenac, 10 min at 37° C.
T3 construct: 0.1 mg/mL protein human liver microsomes (BD Gentest); tissue BD Gentest; host or cells: human liver microsomes
T3 sequence (P11712 whole entry): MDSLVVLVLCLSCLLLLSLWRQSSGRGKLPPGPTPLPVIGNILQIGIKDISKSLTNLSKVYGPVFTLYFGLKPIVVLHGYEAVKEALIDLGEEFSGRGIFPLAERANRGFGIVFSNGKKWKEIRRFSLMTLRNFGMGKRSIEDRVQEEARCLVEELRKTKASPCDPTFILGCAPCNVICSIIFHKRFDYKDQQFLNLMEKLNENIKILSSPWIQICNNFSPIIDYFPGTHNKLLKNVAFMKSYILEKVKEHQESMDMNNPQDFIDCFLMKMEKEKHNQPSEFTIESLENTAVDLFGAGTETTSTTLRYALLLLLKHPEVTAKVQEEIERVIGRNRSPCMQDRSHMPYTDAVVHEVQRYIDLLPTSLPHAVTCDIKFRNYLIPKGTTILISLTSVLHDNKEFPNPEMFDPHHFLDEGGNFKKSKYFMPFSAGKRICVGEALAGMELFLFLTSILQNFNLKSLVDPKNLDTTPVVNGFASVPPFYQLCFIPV
Protocol: as §1, §2, §3

CYP3A4 = target: T4, CYP3A4 (Homo sapiens, UniProt P08684); test: Cocktail assay for CYPs in human liver microsomes, midazolam 1′-hydroxylation (3A4); type: biochemical; conditions: 2 μM midazolam, 10 min at 37° C.
T4 construct: 0.1 mg/mL protein human liver microsomes (BD Gentest); tissue BD Gentest; host or cells: human liver microsomes
T4 sequence (P08684 whole entry): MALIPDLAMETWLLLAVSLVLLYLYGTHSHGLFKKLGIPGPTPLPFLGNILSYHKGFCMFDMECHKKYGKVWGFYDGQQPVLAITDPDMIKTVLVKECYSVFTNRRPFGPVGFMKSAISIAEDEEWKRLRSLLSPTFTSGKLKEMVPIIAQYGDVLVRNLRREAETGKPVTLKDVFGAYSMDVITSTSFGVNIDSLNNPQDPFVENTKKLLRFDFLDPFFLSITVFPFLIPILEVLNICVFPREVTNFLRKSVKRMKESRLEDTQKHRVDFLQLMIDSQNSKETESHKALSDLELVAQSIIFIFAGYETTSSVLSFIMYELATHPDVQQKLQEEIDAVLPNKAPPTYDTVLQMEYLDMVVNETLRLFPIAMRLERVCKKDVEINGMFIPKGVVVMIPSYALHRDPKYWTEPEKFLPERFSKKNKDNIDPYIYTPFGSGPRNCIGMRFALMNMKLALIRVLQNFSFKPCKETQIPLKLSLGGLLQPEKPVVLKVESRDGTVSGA
Protocol: as §1, §2, §3

human CYP11B2 = target: T5, human CYP11B2 (Homo sapiens, UniProt P19099); test: IC50 vs CYP11B2 by measurement of aldosterone synthesis in V79 cells; type: cell-based; conditions: V79 cells expressing human CYP11B2, 750 nM DOC, aldosterone HTRF
T5 construct: expressed in transfected cells
T5 sequence (P19099 25-503): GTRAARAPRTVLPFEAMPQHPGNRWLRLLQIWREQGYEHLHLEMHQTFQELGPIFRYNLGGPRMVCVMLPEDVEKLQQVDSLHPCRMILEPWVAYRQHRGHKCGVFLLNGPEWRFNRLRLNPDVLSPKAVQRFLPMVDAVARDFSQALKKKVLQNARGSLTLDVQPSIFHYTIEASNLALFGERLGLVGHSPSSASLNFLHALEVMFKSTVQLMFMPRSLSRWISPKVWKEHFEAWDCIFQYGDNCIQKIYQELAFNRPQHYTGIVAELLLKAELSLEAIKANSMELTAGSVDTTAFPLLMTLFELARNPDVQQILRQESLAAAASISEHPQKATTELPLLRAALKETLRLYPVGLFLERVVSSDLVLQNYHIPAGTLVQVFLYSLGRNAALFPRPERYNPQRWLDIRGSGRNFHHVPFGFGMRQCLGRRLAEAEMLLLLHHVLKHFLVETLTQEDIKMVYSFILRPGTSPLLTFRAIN
Protocol: (§4) This assay was performed in a standard 384-well plate design using cultured V79 cells stably expressing human CYP11B1 or human CYP11B2. Test compounds at 10 concentrations (for example, 10000, 3333.3, 1111.1, 370.4, 123.5, 41.2, 13.7, 4.6, 1.5 and 0.5 nM) were added in 384-well plate after the cell-seeding procedure. The incubation substrate contains 1500 nM RSS for CYP11B1 assay/750 nM DOC for CYP11B2 assay. The Cortisol/Aldosterone production of cell culture supernatant was determined by Cortisol/Aldosterone HTRF kit after for about 15 hours incubation at RT (protect from light). IC50 (nM) values were calculated from the percent inhibition observed for each test compound at 10 concentrations.
(§5) The assay plate was read using Envision (Perkin Elmer, Waltham, Mass.) at 665 nm and 590 nm (using Filter Barcode of 217#, 205#; Mirror Barcode of 446#).
(§6) Data are analyzed using Assay Data Analyzer. All ratio data (665 nm/590 nm) are back calculated according to the standard curve, resulting in Cortisol/Aldosterone concentrations. IC50 (nM) values are reported as the Inflection Point (IP) of a four parameter fit of the titration data.
(§7) The following equation was used to calculate the % inhibition: % Activity=100×{1−(Sample_back calculated Cortisol/Aldosterone concentration−LC_back calculated Cortisol/Aldosterone concentration)/(HC_back calculated Cortisol/Aldosterone concentration−LC_back calculated Cortisol/Aldosterone concentration)} Curve Fitting: Four Parameter Logistic: […]

CYP2D6 = target: T6, CYP2D6 (Homo sapiens, UniProt P10635); test: Cocktail assay for CYPs in human liver microsomes, dextromethorphan O-demethylation (2D6); type: biochemical; conditions: 5 μM dextromethorphan, 10 min at 37° C.
T6 construct: 0.1 mg/mL protein human liver microsomes (BD Gentest); tissue BD Gentest; host or cells: human liver microsomes
T6 sequence (P10635 whole entry): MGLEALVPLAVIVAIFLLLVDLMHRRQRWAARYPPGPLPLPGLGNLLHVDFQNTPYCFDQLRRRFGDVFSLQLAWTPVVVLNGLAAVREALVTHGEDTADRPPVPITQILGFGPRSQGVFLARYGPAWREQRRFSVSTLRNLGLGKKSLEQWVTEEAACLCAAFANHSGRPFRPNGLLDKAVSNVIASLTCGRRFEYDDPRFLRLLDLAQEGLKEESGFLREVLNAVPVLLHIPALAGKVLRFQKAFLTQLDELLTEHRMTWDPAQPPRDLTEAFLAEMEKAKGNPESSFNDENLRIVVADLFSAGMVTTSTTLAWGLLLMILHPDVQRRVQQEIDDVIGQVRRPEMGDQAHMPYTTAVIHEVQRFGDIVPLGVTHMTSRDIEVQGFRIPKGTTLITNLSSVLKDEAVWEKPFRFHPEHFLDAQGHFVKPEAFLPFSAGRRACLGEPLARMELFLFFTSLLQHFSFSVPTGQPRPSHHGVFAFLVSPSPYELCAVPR
Protocol: as §1, §2, §3

human CYP11B1 = target: T7, human CYP11B1 (Homo sapiens, UniProt P15538); test: IC50 vs CYP11B1 by measurement of cortisol synthesis in V79 cells; type: cell-based; conditions: V79 cells expressing human CYP11B1, 1500 nM RSS, cortisol HTRF
T7 construct: expressed in transfected cells
T7 sequence (P15538 25-503): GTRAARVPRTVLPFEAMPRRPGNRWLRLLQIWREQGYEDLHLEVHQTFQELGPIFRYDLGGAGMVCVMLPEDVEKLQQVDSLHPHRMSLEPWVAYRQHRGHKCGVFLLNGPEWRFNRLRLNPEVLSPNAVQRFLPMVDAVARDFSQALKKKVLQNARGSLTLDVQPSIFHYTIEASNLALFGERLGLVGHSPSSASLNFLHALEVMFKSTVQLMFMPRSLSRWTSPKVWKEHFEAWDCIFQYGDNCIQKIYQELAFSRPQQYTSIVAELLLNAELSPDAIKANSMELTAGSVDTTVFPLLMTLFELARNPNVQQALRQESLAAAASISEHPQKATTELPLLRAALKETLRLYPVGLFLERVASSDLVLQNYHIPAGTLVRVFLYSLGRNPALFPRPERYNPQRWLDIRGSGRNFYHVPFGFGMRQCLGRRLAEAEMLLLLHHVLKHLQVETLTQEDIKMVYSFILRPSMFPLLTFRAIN
Protocol: as §4, §5, §6, §7

## C[C@@H](c1ccccc1-c1ccc(F)cc1)n1cncc1C(=O)N1CC[C@@H](N2CCOCC2)[C@@H](F)C1 [Compound 29]
CYP2C19
  IC50: > 10 µM
CYP1A2
  IC50: > 10 µM
CYP2C9
  IC50: > 10 µM
CYP3A4
  IC50: 0.0063 µM
Human CYP11B2
  IC50: > 50 µM
CYP2D6
  IC50: 6.22 µM
Human CYP11B1
  IC50: 22 µM

## C[C@@H](c1ccccc1-c1ccc(F)cc1)n1cncc1C(=O)N1CC[C@@H](N2CCNC(=O)C2)[C@@H](F)C1 [Compound 30]
CYP2C19
  IC50: > 10 µM
CYP1A2
  IC50: > 10 µM
CYP2C9
  IC50: > 10 µM
CYP3A4
  IC50: 0.0058 µM
Human CYP11B2
  IC50: 41.5 µM
CYP2D6
  IC50: > 10 µM
Human CYP11B1
  IC50: > 50 µM

## C[C@H]1CN(C(=O)c2cncn2[C@@H](C)c2ccccc2-c2ccc(F)cc2)CC[C@H]1N1CCNC(=O)C1 [Compound 31]
CYP2C19
  IC50: > 10 µM
CYP1A2
  IC50: > 10 µM
CYP2C9
  IC50: > 10 µM
CYP3A4
  IC50: 0.0097 µM
Human CYP11B2
  IC50: > 50 µM
CYP2D6
  IC50: 9.6 µM
Human CYP11B1
  IC50: 28.1 µM

## C[C@H]1CN(C(=O)c2cncn2[C@@H](C)c2ccccc2-c2ccc(F)cc2)CC[C@H]1N1CC[C@@H](O)C1 [Compound 32]
CYP2C19
  IC50: > 10 µM
CYP1A2
  IC50: > 10 µM
CYP2C9
  IC50: > 10 µM
CYP3A4
  IC50: 0.0042 µM
Human CYP11B2
  IC50: > 50 µM
CYP2D6
  IC50: 8.38 µM
Human CYP11B1
  IC50: 22.5 µM

## CO[C@H]1CN(C(=O)c2cncn2[C@@H](C)c2ccccc2-c2ccc(F)cc2)CC[C@@H]1N1CCOC1=O [Compound 33]
CYP2C19
  IC50: > 10 µM
CYP1A2
  IC50: > 10 µM
CYP2C9
  IC50: > 10 µM
CYP3A4
  IC50: 0.0091 µM
Human CYP11B2
  IC50: 23.6 µM
CYP2D6
  IC50: 7.36 µM
Human CYP11B1
  IC50: > 50 µM

## C[C@@H](c1ccccc1-c1ccccc1)n1cncc1C(=O)N1CCC2NCCO[C@@H]2C1 (some centres unmarked) [Compound 34]
CYP2C19
  IC50: > 10 µM
CYP1A2
  IC50: > 10 µM
CYP2C9
  IC50: > 10 µM
CYP3A4
  IC50: 0.0068 µM
Human CYP11B2
  IC50: > 50 µM
CYP2D6
  IC50: 8.05 µM
Human CYP11B1
  IC50: 21.2 µM

## COCc1ccccc1-c1ccccc1[C@H](C)n1cncc1C(=O)N1CCC2NCCO[C@@H]2C1 (some centres unmarked) [Compound 35]
CYP2C19
  IC50: > 10 µM
CYP1A2
  IC50: > 10 µM
CYP2C9
  IC50: > 10 µM
CYP3A4
  IC50: 0.0055 µM
Human CYP11B2
  IC50: 25.8 µM
CYP2D6
  IC50: 9.1 µM
Human CYP11B1
  IC50: 20.4 µM

## C[C@@H](c1ccccc1-c1cccc(F)c1)n1cncc1C(=O)N1CCC2NCCO[C@@H]2C1 (some centres unmarked) [Compound 36]
CYP2C19
  IC50: > 10 µM
CYP1A2
  IC50: > 10 µM
CYP2C9
  IC50: > 10 µM
CYP3A4
  IC50: 0.0096 µM
Human CYP11B2
  IC50: > 50 µM
CYP2D6
  IC50: > 10 µM
Human CYP11B1
  IC50: 32.7 µM
